Test results: patent US20150133390A1, “Identification of New Therapeutic Uses for Known Therapeutic Agents” (The Board of Trustees of the Leland Stanford Junior …, priority 2012, published 2015)
“Also recorded” adds a separate entry of the source.

How the values were obtained:
[1] = tested on: infiltrating cell subsets in cardiac allografts; assay: Flow cytometry count of infiltrating cell subsets in cardiac allografts; format: in vivo, mouse; details: for number of infiltrating B220+ B cells compared to cyclosporine: POD 7, compared to cyclosporine group; for number of CD45+ infiltrating cells / number of infiltrating B220+ B cells / number of infiltrating CD4+ T cells / number of infiltrating CD8+ T cells / number of infiltrating CD11c+ dendritic cells / number of infiltrating F4/80+ macrophages / number of infiltrating NK1.1+ natural killer cells: POD 7, compared to untreated AR
Protocol: (§1) FVB donor hearts were implanted into the abdomen of C57BL/6 WT mice representing a complete MHC mismatch, as described previously. […] Animal activity, body weight and graft viability (abdominal palpation) were assessed daily.
(§2) Before oral gavages of Atorvastatin and Dasatinib, aliquots were mixed thoroughly. Unused formulations were discarded. Treatment started the day prior to transplantation and lasted until the day before sacrifice at post operation day 7 by exsanguination. Grafts were harvested and divided into three equal parts for downstream analyses.
Fluorescein isothiocyanate (FITC), phycoerythin (PE), or allophycocyanin-conjugated mAbs specific for mouse CD4 (GK1.5), CD8a (53-6.7), F4/80 (BM8), B220 (RA3-6B2), Gr1 (RB6-8C5), CD11c (N418), NK1.1 (PK136), CD45 (30-F11), and their isotype controls were purchased from BD Biosciences (San Jose, Calif.), eBioscience (San Diego, Calif.), or BioLegend (San Diego, Calif.). Immediately after graft explantation at day 7 post transplantation, one third of the cardiac allograft was homogenized in RPMI 1640 media with 2 mg/mL Collagenase D (Worthington Bio) and 10% FCS for 2 h at RT. Cells were first incubated with normal hamster serum, normal mouse serum (Jackson ImmunoResearch), and 5 μg/ml anti-CD16/32 mAb (2.4G2; BD Bioscience), then stained with FITC-, PE-, and APC-conjugated mAbs for 30 min at 4° C. To exclude the dead cells, 7-Amino-Actinomycin D (BD Bioscience) was added and incubated for 10 minutes before analysis. Expression of markers was determined by FACS Calibur (BD Bioscience) and FlowJo software (Tree Star).

CRM genes = assay: Transcriptional analysis of mouse heart allografts (microarray with IPA pathway analysis, Q-PCR of CRM genes); format: in vivo; details: treatment group against untreated AR group
Protocol: We performed functional pathway analysis using Pathway-Express (PE). We used meta effect-size as fold change in PE to identify significant pathways. We used FDR<0.1 as a threshold for identifying significant pathways. We performed network analysis using IPA with option to only include “direct relationship” in order to avoid spurious connections due to “indirect relations”.
QRT-PCR for the CIRM module genes in mouse allografts was performed using a high-throughput RT-PCR instrument (BioMark; Fluidigm, San Francisco, Calif.). […] Data was analyzed using the BioMark RT-PCR Analysis Software Version 2.0. Using the delta Ct method, gene expression in each sample was calculated relative to the expression in a universal RNA sample (human universal RNA, Stratagene, CA). […]
For whole mouse genome expression analysis, Agilent Whole Mouse Genome 4×44K 60mer oligonucleotide arrays (G2519F, Agilent Technologies, Palo Alto, Calif.) were used. […] After purification, using the RNeasy mini kit (Qiagen), cRNA yield and Cy incorporation efficiency (specific activity) into the cRNA were determined using a NanoDrop Spectrophotometer (NanoDrop Technologies). cRNAs showing a yield >825 ng and a specific activity of 8-20 pmol/μg were selected for further processing. […]

[2] = tested on: graft infiltrating cells in cardiac allograft; assay: Graft histology / immunohistochemistry of infiltrating cells at POD 7; format: in vivo, mouse; details: for number of infiltrating cells (immunohistochemistry): POD 7, compared to untreated AR
Protocol: as §1, §2
One third of the explanted allograft heart (POD7) was immediately fixed in […] buffered formalin, embedded in paraffin and subsequently stained with hematoxylin and eosin for histological assessment of tissue according to standard protocols. Pictures of the graft tissue were taken at 10× magnification using a Nikon E600 light microscope (Nikon Instruments Inc., Melville, N.Y.) and Spot V4.6 imaging software (Spot Imaging, Sterling Heights, Mich.).

[3] = tested on: FVB donor hearts implanted into C57BL/6 WT mice (cardiac allograft); assay: Graft survival in murine heterotopic cardiac transplant model of acute rejection; format: in vivo, mouse; details: for allograft survival compared to untreated AR / Median survival: FVB-to-C57BL/6 cardiac transplant; for allograft survival compared to untreated AR: 6 pairs per group; for Median survival: atorvastatin 75 and dasatinib 25 mg/kg/day oral gavage, cyclosporine 20 mg/kg/day i.p., followed to POD 30, untreated AR 10 days
Protocol: as §1, §2
Graft viability (abdominal palpation) were assessed daily for these animals until post operation day 30.

INPP5D = details: van Leuven et al., 2010; cited from earlier work

| SMILES | number of infiltrating B220+ B cells compared to cyclosporine [1] | number of CD45+ infiltrating cells [1] | number of infiltrating B220+ B cells [1] | number of infiltrating CD4+ T cells [1] | number of infiltrating CD8+ T cells [1] | number of infiltrating CD11c+ dendritic cells [1] | number of infiltrating F4/80+ macrophages [1] | number of infiltrating NK1.1+ natural killer cells [1] | pathways affected (IPA pathway analysis of down-regulated genes) (CRM genes) | number of infiltrating cells (immunohistochemistry) relative to cyclosporine ([2]; POD 7, compared to treatment with cyclosporine (p>0.05)) | number of infiltrating cells (immunohistochemistry) [2] | hazard ratio for graft survival ([3]; Cox-proportional hazard analysis, treated compared to untreated AR) | allograft survival compared to untreated AR [3] | Median survival [3] [days] | reduction of expression of INPP5D (INPP5D) |
| --- | --- | --- | --- | --- | --- | --- | --- | --- | --- | --- | --- | --- | --- | --- | --- |
| Cc1nc(Nc2ncc(C(=O)Nc3c(C)cccc3Cl)s2)cc(N2CCN(CCO)CC2)n1 [dasatinib] | reduced | significantly reduced | significantly reduced | reduced | reduced | significantly reduced | significantly reduced | significantly reduced | cell cycle-related pathways | equivalent | significantly reduced; also recorded: fewer infiltrating cells | 66.26 | significantly extended allograft survival | 24.5 | – |
| CC(C)c1c(C(=O)Nc2ccccc2)c(-c2ccccc2)c(-c2ccc(F)cc2)n1CC[C@@H](O)C[C@@H](O)CC(=O)O [atorvastatin] | reduced | significantly reduced | significantly reduced | reduced | reduced | significantly reduced | significantly reduced | significantly reduced | monocyte- and macrophage-related pathways | – | significantly reduced; also recorded: fewer infiltrating cells | – | significantly extended allograft survival | 17 | – |
| COc1c(C)c2c(c(O)c1C/C=C(\C)CCC(=O)OCCN1CCOCC1)C(=O)OC2 [Mycophenolate mofetil] | – | – | – | – | – | – | – | – | – | – | – | – | – | – | more than 2 fold |
